The test system of series [1] is HBV replication in HepAD38 cells. Briefly: Anti-HBV activity in HepAD38 cells, extracellular HBV DNA by QPCR. The format is cell-based, HBV (genotype D, serotype ayw). As to conditions: Hepatitis B virus, HePAD38, 168 h. The protocol: The anti-HBV activity of the Capsid Assembly Modulators (CAMs) was evaluated in a cell based assay utilizing the human hepatoma cell line HepAD38 (Ladner, S K., et al., 1998). HepAD38 cells were derived from the parental line, HepG2, that were stably transfected with a construct containing an HBV genome (genotype D, serotype ayw) under the control of a tetracycline repressible CMV promoter. Upon removal of tetracycline, viral pre-genomic RNA (pgRNA) and mRNAs are expressed and infectious viral particles are assembled and secreted into the culture medium providing a reliable, robust system to measure multiple steps of the HBV life cycle. Disruption of capsid formation results in reduced levels of DNA-containing virus particles that are released into the culture supernatant. To quantify the effect of CAMs on HBV replication, we developed a sensitive QPCR-based assay that measures extracellular HBV DNA levels upon treatment of HepAD38 cells with various concentrations of test compounds.
HepAD38 cells were maintained in DMEM/F12 medium containing 10% FBS, 400 μg/mL G418 and 0.3 μg/mL tetracycline (tet+medium) to maintain repression of HBV replication. To evaluate each compound, HepAD38 cells were seeded into 24-well collagen coated culture plates (Corning BioCoat) at a density of 200,000 cells per well in 1 mL of tet+medium and allowed to adhere overnight at 37° C., 5% CO2 in a humidified incubator. The following day, test articles were subjected to half-logo serial dilutions, ranging from 30 μM to 10 nM, in 100% DMSO at 200× the desired final assay concentration. Tetracycline was removed from the cells by aspirating the tet+medium and washing the cells once with growth medium lacking tetracycline (tet-). Various concentrations of each compound were added to the appropriate wells (1:200 dilution) and the plates were returned to the incubator. Following 7 days of incubation, culture supernatants were harvested and HBV DNA levels were evaluated by QPCR and compared to the vehicle treated control wells (i.e. DMSO alone).
To quantify HBV DNA levels, cell culture supernatants were diluted 1:10 in sterile, nuclease-free water (Gibco). The diluted supernatants were subsequently added to a PCR master mix containing 1× Roche Light Cycler Master Mix, 0.5 μM forward primer, 0.5 μM reverse primer (Fwd:
0.2 μM Roche Universal Probe Library Probe 25. The volume was brought to 20 μL with nuclease-free water and amplification of the HBV target sequence was performed using a Roche LightCycler 480 QPCR instrument. PCR extended out to 45 cycles with each cycle consisting of a denaturation step at 95° C. for 10 sec., followed by an annealing step at 60° C. for 10 sec. and a brief extension step at 72° C. for 1 sec.
Extracellular HBV DNA levels, expressed in copies/mL, were determined by comparison to a standard curve (10^2-10^9 copies/mL) using the Roche LightCycler analysis software. These values were subsequently converted to percent inhibition of HBV replication by dividing the HBV DNA levels in the experimental samples with those obtained from the vehicle control (˜1-2×10^5 copies/mL). Potency, expressed as an EC50 (the effective concentration required to inhibit […] of HBV replication), was calculated from the dose-response curve using a 4-parameter non-linear regression analysis (GraphPad Prism). The nucleoside analog inhibitor entecavir was used as a positive control to validate each assay run. The EC50 value of entecavir in the HepAD38 assay was 0.5 nM, as previously reported in the literature.

The nature of series [2]: In vitro cytotoxicity, MTT cell viability assay in HepG2 cells. The format is cell-based. The note with it: human. The protocol: To evaluate antiviral selectivity, the cytotoxic activity of each compound was determined using a standard cell viability assay performed on the parental HepG2 cell line. Cell viability was determined by measuring the conversion of 3-(4,5-dimethylthiazol-2-yl)-2,5-diphenyltetrazolium bromide (MTT) to the insoluble formazan salt crystal that occurs in live cells. Briefly, HepG2 cells were seeded in 96-well plates at a density of 20,000 cells per well in EMEM+10% FBS (complete growth medium) and allowed to adhere overnight in a 37° C., 5% CO2 humidified incubator. The next day, test agents were prepared by performing 8 half-log10 serial dilutions in 100% DMSO at 200× the final desired concentration in the assay. Compounds were tested over a range of concentrations from 30 μM to 1.0 nM in the assay. HepG2 cells were incubated in the presence of various concentrations of CAMs for 7 days in a 37° C., 5% CO2 humidified incubator. At the completion of the 7-day incubation period, MTT reagent was added to each well and the mixture was incubated for an additional 3-4 hours. At the completion of the incubation period, all wells were aspirated to remove the culture medium. The formazan crystals were solubilized from the cell monolayers with 100% DMSO. Plates were briefly mixed on an orbital shaker and absorbance was measured at 492 nm using a Perkin-Elmer EnVision multi-label plate reader. All absorbance values were converted to a percentage of the signal obtained from the vehicle treated controls. Absorbance values at 492 nm are directly proportional to the number of viable cells present in the sample. A CC50 value (cytotoxic concentration that results in loss of 50% cell viability) was calculated from the dose-response curve by 4-parameter, non-linear regression analysis using the GraphPad Prism software. The positive control compound, staurosporine, reduced the viability of HepG2 cells in a dose-dependent manner (CC50=100 nM).

The mark [3] stands for this setting: read-out: Anti-HBV EC50, HepAD38 cells, extracellular HBV DNA by QPCR, 7 days of incubation.

Read-outs that look alike come from different tables or passages of the source. Bounds are passed on as bounds.

`Cc1cc(NC(=O)c2ccc(F)c(C(F)(F)C(=O)NCc3nccs3)c2)ccc1F` [Example 68, 3-(1,1-difluoro-2-oxo-2-((thiazol-2-ylmethyl)amino)ethyl)-4-fluoro-N-(4-fluoro-3-methylphenyl)benzamide]: the EC50 in series [1] (setting [3]) was below 5 µM. In series [2] (Cytotoxicity CC50), this compound returned a CC50 at 7 days of 5 to 30 µM.

Take `Cc1cc(NC(=O)c2ccc(F)c(C(F)(F)C(=O)NCB3O[C@@H]4C[C@@H]5C[C@@H](C5(C)C)[C@]4(C)O3)c2)ccc1F` [Example 149, 3-(1,1-difluoro-2-oxo-2-((((3aS,4S,6S,7aR)-3a,5,5-trimethylhexahydro-4,6-methanobenzo[d][1,3,2]dioxaborol-2-yl)methyl)amino)ethyl)-4-fluoro-N-(4-fluoro-3-methylphenyl)benzamide]: in series [1] (setting [3]), the EC50 is below 5 µM. The CC50 at 7 days in series [2] (Cytotoxicity CC50) fell in the range of 5 to 30 µM.

In the case of `Cc1cc(NC(=O)c2ccc(F)c(C(F)(F)C(=O)N3CCC(N)C(F)(F)C3)c2)ccc1F` (stereo not shown) [Example 334, 3-(2-(4-amino-3,3-difluoropiperidin-1-yl)-1,1-difluoro-2-oxoethyl)-4-fluoro-N-(4-fluoro-3-methylphenyl)benzamide], in series [1] (setting [3]), the EC50 is below 5 µM. Also, the CC50 at 7 days in series [2] (Cytotoxicity CC50) fell in the range of 5 to 30 µM.

Turning to `Cc1cc(NC(=O)c2ccc(F)c(C(F)(F)C(=O)N3[C@@H]4CCC[C@H]3C[C@H](NS(C)(=O)=O)C4)c2)ccc1F` [Example 338, 3-(1,1-difluoro-2-((1R,3s,5S)-3-(methylsulfonamido)-9-azabicyclo[3.3.1]nonan-9-yl)-2-oxoethyl)-4-fluoro-N-(4-fluoro-3-methylphenyl)benzamide], the EC50 in series [1] (setting [3]) was below 5 µM. Moreover, the CC50 at 7 days in series [2] (Cytotoxicity CC50) was 5 to 30 µM.

For `O=C(Nc1ccc(F)c(F)c1)c1ccc(F)c(C(F)(F)C(=O)Nc2ccc(F)cn2)c1` [Example 22, 3-(1,1-difluoro-2-((5-fluoropyridin-2-yl)amino)-2-oxoethyl)-N-(3,4-difluorophenyl)-4-fluorobenzamide], the EC50 in series [1] (setting [3]) fell in the range of 5 to 30 µM. In series [2] (Cytotoxicity CC50), this compound returned a CC50 at 7 days above 30 µM.

In the case of `Cc1cc(NC(=O)c2cn(C)c(C(F)(F)C(=O)NC(C)(C)C)c2C)ccc1F` [Example 113, 5-(2-(tert-butylamino)-1,1-difluoro-2-oxoethyl)-N-(4-fluoro-3-methylphenyl)-1,4-dimethyl-1H-pyrrole-3-carboxamide], the EC50 in series [1] (setting [3]) is below 5 µM. The CC50 at 7 days in series [2] (Cytotoxicity CC50) was above 30 µM.

With `Cn1cc(C(=O)Nc2ccc(F)c(Cl)c2)cc1C(F)(F)C(=O)N[C@@H]1CCOC1` [Example 142, (R)-N-(3-chloro-4-fluorophenyl)-5-(1,1-difluoro-2-oxo-2-((tetrahydrofuran-3-yl)amino)ethyl)-1-methyl-1H-pyrrole-3-carboxamide], in series [1] (setting [3]), the EC50 was below 5 µM. Also, the CC50 at 7 days in series [2] (Cytotoxicity CC50) is above 30 µM.

`O=C(Nc1cc(F)c(F)c(F)c1)c1ccc(Cl)c(C(F)(F)C(=O)N2CCC(O)CC2)c1` [Example 34, 4-chloro-3-(1,1-difluoro-2-(4-hydroxypiperidin-1-yl)-2-oxoethyl)-N-(3,4,5-trifluorophenyl)benzamide]: in series [1] (setting [3]), the 50% effective concentration (EC50) was below 5 µM. Also, in series [2] (Cytotoxicity CC50), the CC50 at 7 days was 5 to 30 µM.

On to `O=C(Nc1ccnc(Cl)c1)c1ccc(F)c(C(F)(F)C(=O)N2CCC(O)(CO)CC2)c1` [Example 198, N-(2-chloropyridin-4-yl)-3-(1,1-difluoro-2-(4-hydroxy-4-(hydroxymethyl)piperidin-1-yl)-2-oxoethyl)-4-fluorobenzamide], for which, in series [1] (setting [3]), the EC50 was below 5 µM. This compound also registered a CC50 at 7 days in series [2] (Cytotoxicity CC50) of 5 to 30 µM.

As for `Cc1cc(NC(=O)c2ccc(F)c(C(F)(F)C(=O)N3CCC(O)CC3)c2)ccc1F` [Example 29, 3-(1,1-difluoro-2-(4-hydroxypiperidin-1-yl)-2-oxoethyl)-4-fluoro-N-(4-fluoro-3-methylphenyl)benzamide], in series [1] (setting [3]), the EC50 is below 5 µM. The CC50 at 7 days in series [2] (Cytotoxicity CC50) was above 30 µM.

Regarding `Cn1ccc(C(=O)Nc2ccc(F)c(Cl)c2)c1C(F)(F)C(=O)N[C@@H]1CCOC1` [Example 143, (R)-N-(3-chloro-4-fluorophenyl)-2-(1,1-difluoro-2-oxo-2-((tetrahydrofuran-3-yl)amino)ethyl)-1-methyl-1H-pyrrole-3-carboxamide], the EC50 in series [1] (setting [3]) was in the range of 5 to 30 µM. This compound also yielded a CC50 at 7 days in series [2] (Cytotoxicity CC50) above 30 µM.

As to `Cn1cc(NC(=O)c2ccc(F)c(C(F)(F)C(=O)N3[C@@H]4CC[C@H]3C[C@@H](O)C4)c2)cn1` [Example 180, 3-(1,1-difluoro-2-((1R,3r,5S)-3-hydroxy-8-azabicyclo[3.2.1]octan-8-yl)-2-oxoethyl)-4-fluoro-N-(1-methyl-1H-pyrazol-4-yl)benzamide], the EC50 in series [1] (setting [3]) lay in the range of 5 to 30 µM. Moreover, the CC50 at 7 days in series [2] (Cytotoxicity CC50) was above 30 µM.

As for `Cc1cc(NC(=O)c2ccc(F)c(C(Cl)(Cl)C(=O)N3CC=C(B(O)O)CC3)c2)ccc1F` [Example 151, (1-(2,2-dichloro-2-(2-fluoro-5-((4-fluoro-3-methylphenyl)carbamoyl)phenyl)acetyl)-1,2,3,6-tetrahydropyridin-4-yl)boronic acid], in series [1] (setting [3]), the EC50 was below 5 µM. Moreover, the CC50 at 7 days in series [2] (Cytotoxicity CC50) is above 30 µM.

Consider `Cn1cc(C(=O)Nc2ccc(F)c(Cl)c2)cc1C(F)(F)C(=O)NC(C)(C)C` [Example 139, 5-(2-(tert-butylamino)-1,1-difluoro-2-oxoethyl)-N-(3-chloro-4-fluorophenyl)-1-methyl-1H-pyrrole-3-carboxamide], for which the EC50 in series [1] (setting [3]) is below 5 µM.

As to `Cc1cc(NC(=O)c2ccc(F)c(C(F)(F)C(=O)N3CCn4c(cnc4C(F)(F)F)C3)c2)ccc1F` [Example 312, 3-(1,1-difluoro-2-oxo-2-(3-(trifluoromethyl)-5,6-dihydroimidazo[1,5-a]pyrazin-7(8H)-yl)ethyl)-4-fluoro-N-(4-fluoro-3-methylphenyl)benzamide], the EC50 in series [1] (setting [3]) was below 5 µM.

`C=C1[C@H](CO)[C@@H](O)C[C@@H]1n1cnc2c(=O)[nH]c(N)nc21` [entecavir, reference compound]: the EC50 in series [1] (positive control, HepAD38 cells, 7 days incubation, extracellular HBV DNA, read-out: EC50 in the HepAD38 assay) was 0.0005 µM.

As for `Cc1cc(NC(=O)c2ccc(F)c(C(F)(F)C(=O)N3[C@@H]4CC[C@H]3c3sc(N)nc3C4)c2)ccc1F` [Example 313, 3-(2-((5R,8S)-2-amino-5,6,7,8-tetrahydro-4H-5,8-epiminocyclohepta[d]thiazol-9-yl)-1,1-difluoro-2-oxoethyl)-4-fluoro-N-(4-fluoro-3-methylphenyl)benzamide], in series [1] (setting [3]), the EC50 was below 5 µM.

`CN[C@@H]1C[C@H]2O[C@@](C)([C@@H]1OC)n1c3ccccc3c3c4c(c5c6ccccc6n2c5c31)C(=O)NC4` [staurosporine, reference compound]: the CC50 at 7 days in series [2] (positive control, HepG2 cells, 7 days incubation, MTT, read-out: CC50, viability of HepG2 cells) is 0.1 µM.
